Assay results: US11225474B2, “Crystalline salt forms of 3-(1,2,4-triazolo[4,3-a]pyridine-3-ylethynyl)-4-methyl-N-(4-((4-methylpiperazin-1-yl)methyl)-3-trifluoromethylphenyl)benzamide for medical application” (priority 2016, dated 2022)
Values after ≈ are worked out from the molar mass of the structure shown. Where two headings read alike, the source gives them in different places.

Legend:
[1] = Hygroscopicity by gravimetric moisture absorption; format: physicochemical; settings: for water absorbed (hygroscopicity): relative air humidity of 90%
From the text: Samples were also studied using the following methods: polarization microscopy (Leica DMRB Polarized Microscope, resolution of 1600×1200)—to confirm crystallinity, ion chromatography—to confirm anion and cation stoichiometric proportion, differential scanning calorimetry (DSC) and thermogravimetric analysis (TGA)—to confirm composition and study of temperature stability of samples; ^1H NMR (500 MHz Bruker AVANCE 500.13 MHz, solvent DMSO-d6)—to confirm structure, assess purity and content of organic solvents; gravimetric moisture absorption—to assess hygroscopicity. DSC was carried out using Mettler 822e DSC apparatus. The measuring system was calibrated according to ISO 11357-1 standard based on standard substances phase changes (C6H12; Hg; benzoic acid; Ga; KNO3; In; Sn; Bi; CsCl; purity grade 99.99%). Temperature calibration regular error (determined based on In) is 0.1°. Samples were tested in standard aluminum cells in the artificial air flow at a temperature range of 30-300° C. with heating speed of 10°/min. TG measurements were taken using Mettler 851e SDTA/TGA TG analyzer. The apparatus was calibrated using standard substances melting points (Ag; Al; Bi; In; Sn; purity grade of 99.99%). Weighing error is NMT 0.1% (determined using CaC2O4·2H2O standard). The test was carried out in a standard open aluminum container in the artificial air flow at a temperature range of 30-150° C. with heating speed of 10°/min. To avoid dehydration, the material was not exposed to mechanical treatment before taking measurements.

[2] = physchem; format: physicochemical; settings: deionized water
[3] = Stability, 7 days at T = 60° C.; format: physicochemical; settings: for Crystallinity in 7 days / Relative peak area, in 7 days: 7 days at T = 60° C.; for Relative peak area, initial: before storage; for content of impurities: kept seven days at 60° C.
[4] = Stability of polymorph modifications, suspending in acetone for 6 days; format: physicochemical; settings: for crystalline structure after suspending in acetone: 6 days; for Crystallinity in 6 days: suspending in acetone for 6 days, room temperature
Description: Crystallinity of all samples obtained was studied using the method of X-ray powder diffraction (to study the crystallinity structure). Diffraction patterns were obtained at a temperature of 25° C. […] Survey step 0.02° 2θ, angle range 3-45° 2θ. Diffraction patterns obtained were studied in detail using X'Pert HighScore Plus software package.

[5] = for pH: equilibrium solubility test in water; for Crystallinity in 24 h: solid in water, equilibrium solubility test
[6] = physchem; settings: deionized water, thermodynamic from solid, Equilibrium solubility, HPLC analysis
[7] = in vivo; design: species or system C57BL/6 line mice
Description: FIGS. 52A-52B. […] The mean values were determined for each time point on the basis of the individual data obtained from three animals.
The results of the study are given in FIG. 52 and in Tables 14 and 15.

[8] = test system: Sca1+ marrow cells, expressing p185-T315I^BCR/ABL; assay: BCR/ABL-induced chronic myelogenous leukemia model; format: in vivo, C57BL/6N line mice; settings: oral, 50 mg/kg free base; control 55.0 ± 6.3
Description: To assess the efficacy of the free base and methanesulfonic acid salt of 3-(1,2,4-triazolo[4,3-a]pyridine-3-ylethynyl)-4-methyl-N-(4-((4-methylpiperazine-1-yl)methyl)-3-trifluoromethylphenyl)benzamide for treating chronic myelogenous leukemia (CML) studies of the compounds' activity on the BCR/ABL-induced CML-like disease in mice were conducted. In the study C57BL/6N line mice were used. […] The efficacy of therapy with 3-(1,2,4-triazolo[4,3-a]pyridine-3-ylethynyl)-4-methyl-N-(4-((4-methylpiperazine-1-yl)methyl)-3-trifluoromethylphenyl)benzamide administered orally as a free base and methanesulfonic acid salt was studied.

[9] = Solubility of the free base in various solvents; format: physicochemical; settings: thermodynamic from solid
Description: At the first stage the initial base was tested for solubility in selected organic solvents. The maximum selected solvent volume used in this test was 1.25 mL per 1 mg of base. Low toxicity (Class 3), low-boiling (Tboiling<100° C.), polar, solvents. in which the base was soluble at no less than 10 mg/mL were selected for further studies.

[10] = Acute toxicity, oral route, mice; settings: male, CD-1, mouse, in vivo, po, LD50, oral, male CD-1 mice; dose of the substance administered
From the text: (§1) For each drug dose study a group of six animals was used. The study included control groups with the same animal headcount, which received equivalent solvent doses of a 0.5% water solution of methylcellulose. The follow-up period was 28 days. Lab mouse survivability analysis allowed carrying out Bliss analysis and determining the lethal doses of the studied drugs.

[11] = test system: CD-1 line mice males; assay: Acute toxicity, oral route, mice
From the text: as §1

[12] = pKa of the base; format: physicochemical
[13] = Dissolution kinetics (USP Apparatus 1 Basket Method); format: physicochemical; settings: for pH of prepared solution: 780 minutes after beginning
Description: During further studies of the polymorphous modifications of the methanesulfonic acid salt of 3-(1,2,4-triazolo[4,3-a]pyridine-3-ylethynyl)-4-methyl-N-(4-((4-methylpiperazine-1-yl)methyl)-3-trifluoromethylphenyl)benzamide, the kinetics of dissolution of the free base and the two methanesulfonic acid salt form polymorphous modifications was studied. Dissolution kinetics studies were performed using USP Apparatus 1 Basket Method (USP40, General Chapter <711>. Dissolution), dissolution media volume—700 mL, temperature—37±1° C. paddle stirrers' rotation rate—100 rpm. The test sample dissolution rate was calculated as an average of six repeats. Distilled water was used as the dissolution medium for the polymorphous modifications of 3-(1,2,4-triazolo[4,3-a]pyridine-3-ylethynyl)-4-methyl-N-(4-((4-methylpiperazine-1-yl)methyl)-3-trifluoromethylphenyl)benzamide methanesulfonic acid salt and, and a solution of 12.2 mL of methanesulfonic acid in 500 mL of water was used as the dissolution medium for the free base. Test portions containing 100 mg of 3-(1,2,4-triazolo[4,3-a]pyridine-3-ylethynyl)-4-methyl-N-(4-((4-methylpiperazine-1-yl)methyl)-3-trifluoromethylphenyl)benzamide or 118 mg of 3-(1,2,4-triazolo[4,3-a]pyridine-3-ylethynyl)-4-methyl-N-(4-((4-methylpiperazine-1-yl)methyl)-3-trifluoromethylphenyl)benzamide methanesulfonic acid salt (100 mg calculated as free base) were used for dissolution. In 780 minutes (13 hours) after the beginning of the test, pH of prepared solutions was measured.

[14] = mouse, free base 50 mg/kg, single oral, C57BL/6 mice, plasma
[15] = oral, male CD-1 mice, dose of the substance administered
[16] = mesylate polymorphous modification I 59 mg/kg (50 mg/kg as free base), single oral, C57BL/6 mice

In the case of `Cc1ccc(C(=O)Nc2ccc(CN3CCN(C)CC3)c(C(F)(F)F)c2)cc1C#Cc1nnc2ccccn12.Cl` [HAL-G-196-2], the “sample hygroscopicity (water sorption and desorption)” value ([1]; gravimetric moisture absorption) is reported as “desorbed and sorbed water, the volume of which corresponded to a dihydrate” and the Apparent solubility ([2]; RT) is reported as over 29000 µg/mL.
For `Cc1ccc(C(=O)Nc2ccc(CN3CCN(C)CC3)c(C(F)(F)F)c2)cc1C#Cc1nnc2ccccn12.Cl` [HAL-G-196-3], the “water absorbed (hygroscopicity)” value [1] was “less than 8 mass percent”, the “Crystallinity in 7 days” value [3] was “Form II” and the “Relative peak area, in 7 days” value [3] was 99.9%. The “Relative peak area, initial” value [3] was 99.9%, the content of impurities [3] was “remained constant” and the “crystalline structure after suspending in acetone” value (“crystalline structure” for short) [4] was “remained unchanged”. For the same compound, the “Crystallinity in 6 days” value [4] was “Form II”, the pH [5] was 4.0 and the “Crystallinity in 24 h” value [5] was “Amorphous”.
In the case of `Br.Cc1ccc(C(=O)Nc2ccc(CN3CCN(C)CC3)c(C(F)(F)F)c2)cc1C#Cc1nnc2ccccn12` [HAL-G-196-7], the “water absorbed (hygroscopicity)” value [1] is reported as “more than ten mass percent of water and thawed in the air”.
With `Cc1ccc(C(=O)Nc2ccc(CN3CCN(C)CC3)c(C(F)(F)F)c2)cc1C#Cc1nnc2ccccn12.Cc1ccc(S(=O)(=O)O)cc1` [HAL-G-196-24] the “water absorbed (hygroscopicity)” value [1] was “less than four mass percent of water”, the “Crystallinity in 7 days” value [3] was “Cryst” and the “Relative peak area, in 7 days” value [3] was 99.9%. The “Relative peak area, initial” value [3] was 99.8%, the content of impurities [3] was “remained constant” and the “crystalline structure” value [4] was “remained unchanged”. For the same compound, the pH [5] was 3.5 and the “Crystallinity in 24 h” value [5] was “Cryst”.
With `Cc1ccc(C(=O)Nc2ccc(CN3CCN(C)CC3)c(C(F)(F)F)c2)cc1C#Cc1nnc2ccccn12.O=C(O)/C=C/C(=O)O` [HAL-G-196-29] the “water absorbed (hygroscopicity)” value [1] was “less than four mass percent of water”, the “Crystallinity in 7 days” value [3] was “Cryst” and the “Relative peak area, in 7 days” value [3] was 99.9%. The “Relative peak area, initial” value [3] was 99.8%, the content of impurities [3] was “remained constant” and the “crystalline structure” value [4] was “remained unchanged”. The “Crystallinity in 6 days” value [4] was “Cryst”, the pH [5] was 4.2 and the “Crystallinity in 24 h” value [5] was “Cryst”.
In the case of `Cc1ccc(C(=O)Nc2ccc(CN3CCN(C)CC3)c(C(F)(F)F)c2)cc1C#Cc1nnc2ccccn12` [free base, 3-(1,2,4-triazolo[4,3-a]pyridine-3-ylethynyl)-4-methyl-N-(4-((4-methylpiperazin-1-yl)methyl)-3-trifluoromethylphenyl)benzamide], the “water absorbed (hygroscopicity)” value [1] is reported as “less than three mass percent of water”, the “Crystallinity in 7 days” value [3] is reported as “Form I” and the “Relative peak area, in 7 days” value [3] is reported as 99.7%. For the same compound, the “Relative peak area, initial” value [3] was 99.7%, the content of impurities [3] was “remains constant” and the solubility thermodynamic [6] was 0.23 µg/mL (≈ 0.432 µM). For the same compound, the “crystalline structure” value [4] was “changes”, the “Crystallinity in 6 days” value [4] was “Form II” and the AUC0-24/24 ([7]; free base 50 mg/kg, single oral, C57BL/6 mice, plasma) was 452 ng/mL. For the same compound, the AUC(0-inf) [7, 14] was 10900 ng·h/mL, the half-life [7, 14] was 2.4 h and the AUC(0-t) ([7]; mouse, free base 50 mg/kg, single oral, C57BL/6 mice, plasma, read-out: AUC0-24) was 10900 ng·h/mL. The Cmax ([7]; mouse, free base 50 mg/kg, single oral, C57BL/6 mice, plasma, read-out: Cmax) was 1490 ng/mL, the Tmax ([7]; mouse, free base 50 mg/kg, single oral, C57BL/6 mice, plasma, read-out: Tmax) was 2 h and the Average life [8] was 93.0 ± 6.1 days. For the same compound, the solubility ([9]; organic solvent or mixture, 2-methyltetrahydrofuran, 3.7 mg in 0.6 mL, 50 °C) was over 800 µg/mL, the solubility ([9]; organic solvent or mixture, Acetone, 3.4 mg in 0.3 mL, 50 °C) was over 800 µg/mL and the solubility ([9]; organic solvent or mixture, Acetonitrile, 3.5 mg in 4.0 mL, 50 °C) was under 800 µg/mL. It also gave a solubility ([9]; organic solvent or mixture, Cyclohexane, 4.3 mg in 4.0 mL, 50 °C) of under 800 µg/mL, a solubility ([9]; organic solvent or mixture, Dichloromethane, 3.7 mg in 0.4 mL, 50 °C) of over 800 µg/mL and a solubility ([9]; organic solvent or mixture, Dimethyl sulfoxide, 3.8 mg in 0.1 mL, RT) of over 800 µg/mL. For the same compound, the solubility ([9]; organic solvent or mixture, Dimethylformamide, 4.7 mg in 0.1 mL, RT) was over 800 µg/mL, the solubility ([9]; organic solvent or mixture, Ethanol, 4.7 mg in 0.3 mL, 50 °C) was over 800 µg/mL and the solubility ([9]; organic solvent or mixture, Ethyl acetate, 3.9 mg in 1.3 mL, 50 °C) was over 800 µg/mL. For the same compound, the solubility ([9]; organic solvent or mixture, Heptane, 3.3 mg in 4.0 mL, 50 °C) was under 800 µg/mL, the solubility ([9]; organic solvent or mixture, Isopropanol, 3.6 mg in 0.4 mL, 50 °C) was over 800 µg/mL and the solubility ([9]; organic solvent or mixture, Isopropyl acetate, 4.0 mg in 4.0 mL, 50 °C) was under 800 µg/mL. For the same compound, the solubility ([9]; organic solvent or mixture, Methanol, 4.0 mg in 0.1 mL, 50 °C) was over 800 µg/mL, the solubility ([9]; organic solvent or mixture, Methyl ethyl ketone, 4.8 mg in 0.4 mL, 50 °C) was over 800 µg/mL and the solubility ([9]; organic solvent or mixture, Methyl isobutyl ketone, 4.1 mg in 0.6 mL, 50 °C) was over 800 µg/mL. The solubility ([9]; organic solvent or mixture, Methyl tert-butyl ether, 4.7 mg in 4.0 mL, 50 °C) was under 800 µg/mL, the solubility ([9]; organic solvent or mixture, N-methylpyrrolidone, 3.7 mg in 0.1 mL, RT) was over 800 µg/mL and the solubility ([9]; organic solvent or mixture, Tetrahydrofuran, 3.6 mg in 0.1 mL, 50 °C) was over 800 µg/mL. It also gave a solubility ([9]; organic solvent or mixture, Toluene, 3.4 mg in 4.0 mL, 50 °C) of under 800 µg/mL, a solubility ([9]; organic solvent or mixture, n-Butanol, 3.6 mg in 0.2 mL, 50 °C) of over 800 µg/mL and a solubility ([9]; Water, 4.6 mg in 4.0 mL, 50 °C) of under 800 µg/mL. The LD50 at 28 days [10] was 677 ± 55 mg/kg, the “Dose without observable effects” value ([11]; male, CD-1, mouse, in vivo, po, 28 days) was 160 mg/kg and the “signs of animal intoxication” value ([11]; mouse, in vivo, po) was “dyspnea, hypodynamia, tumbled fur, diarrhea, bloating, in some animals—focal alopecia”. For the same compound, the LD10 [11, 15] was 504 mg/kg, the LD90 [11, 15] was 850 mg/kg and the pKa [12] was about 6.4. The solubility ([2]; water, read-out: Apparent solubility) was under 1000 µg/mL, the pH [5] was 5.3 and the “Crystallinity in 24 h” value [5] was “Cryst”. For the same compound, the “pH of prepared solution” value ([13]; medium 12.2 mL methanesulfonic acid in 500 mL water) was 4.02 and the share dissolved ([13]; solution containing 12.2 mL methanesulfonic acid, 780 minutes (13 hours)) was “less than 90%”.
For `CS(=O)(=O)O.Cc1ccc(C(=O)Nc2ccc(CN3CCN(C)CC3)c(C(F)(F)F)c2)cc1C#Cc1nnc2ccccn12` [methanesulfonic acid salt (polymorphous modification I)] [3-(1,2,4-triazolo[4,3-a]pyridine-3-ylethynyl)-4-methyl-N-(4-((4-methylpiperazin-1-yl)methyl)-3-trifluoromethylphenyl)benzamide mono methanesulfonic acid salt, polymorphous modification I], the AUC0-24 [7, 16] was 11,933 ngh/mL, the AUC0-24/24 [7, 16] was 497 ng/mL and the “AUC0-∞” value [7, 16] was 12,103 ng · h/mL. The Cmax [7, 16] was 1,099 ng/mL, the T1/2 [7, 16] was 3.8 h and the Tmax [7, 16] was 4 h. The “pH of prepared solution” value ([13]; medium distilled water) was 5.04.
For `CS(=O)(=O)O.Cc1ccc(C(=O)Nc2ccc(CN3CCN(C)CC3)c(C(F)(F)F)c2)cc1C#Cc1nnc2ccccn12` [methanesulfonic acid salt (polymorphous modification II)] [3-(1,2,4-triazolo[4,3-a]pyridine-3-ylethynyl)-4-methyl-N-(4-((4-methylpiperazin-1-yl)methyl)-3-trifluoromethylphenyl)benzamide mono methanesulfonic acid salt, polymorphous modification II], the “differences in all pharmacokinetic parameters studied versus polymorphous modification I” value ([7]; mouse, in vivo) was “No statistically true differences in all pharmacokinetic parameters studied were revealed after administration of the salt form as polymorphous modification II (p < 0.05)” and the “pH of prepared solution” value ([13]; medium distilled water) was 4.95.
